We go through 3 compounds from paper PMC11787520, “Structural basis of the bifunctionality of Marinobacter salinexigens ZYF650^T glucosylglycerol phosphorylase in glucosylglycerol catabolism” (The Journal of Biological Chemistry, 2024).

Assay [1] addresses T1, MsGGP (Marinobacter salinexigens, UniProt A0A5B0VBK8, E231A).
T1 construct: gene gtfA; full length, 480 residues, subunit 54,844 Da, N-terminal His6 tag (pET28b), E. coli BL21(DE3); six protomers in asymmetric unit
Briefly: ion exchange chromatography, activity relative to wild type. It counts as biochemical. The following applies: 20 mM GG, 20 mM potassium phosphate, pH 6.6, 45 °C.

Assay [2] has as its target T2, MsGGP (Marinobacter salinexigens, UniProt A0A5B0VBK8, D289A).
T2 construct: gene gtfA; full length, 480 residues, subunit 54,844 Da, N-terminal His6 tag (pET28b), E. coli BL21(DE3); six protomers in asymmetric unit
Described as above. Conditions: 20 mM GG, 20 mM potassium phosphate, pH 6.6, 45 °C. Format: biochemical.

In assay [3] the target is T3, MsGGP (Marinobacter salinexigens, UniProt A0A5B0VBK8, D190A).
T3 construct: gene gtfA; full length, 480 residues, subunit 54,844 Da, N-terminal His6 tag (pET28b), E. coli BL21(DE3); six protomers in asymmetric unit
Described as above. Conditions: 20 mM GG, 20 mM potassium phosphate, pH 6.6, 45 °C. Format: biochemical.

Assay [4] has as its target T4, MsGGP (Marinobacter salinexigens, UniProt A0A5B0VBK8).
T4 construct: gene gtfA; full length, 480 residues, subunit 54,844 Da, N-terminal His6 tag (pET28b), E. coli BL21(DE3); six protomers in asymmetric unit
The assay can be described thus: X-ray crystal structure, […] Å. Format: binding. The following applies: active site, together with glycerol.

Assay [5] deals with T4, MsGGP. Briefly: X-ray crystal structure, […] Å. It counts as binding. The following applies: active site of chains A and E; reaction intermediate.

For the compound `OCC(CO)O[C@H]1O[C@H](CO)[C@@H](O)[C@H](O)[C@H]1O` [2-O-α-Glucosylglycerol], the “enzyme activity relative to wildtype” value on MsGGP [1], on MsGGP [2] and at MsGGP [3] was “nearly complete loss of enzyme activity following the mutation of these residues to alanine” throughout.
As for `OC[C@H]1O[C@H](O)[C@H](O)[C@@H](O)[C@@H]1O` [glucose], the “X-ray crystal structure, 2.5 Å” value on MsGGP [4] is “each protomer features an α-glucose and a glycerol molecule occupying the active site”.
As to `O=P(O)(O)O[C@H]1O[C@H](CO)[C@@H](O)[C@H](O)[C@H]1O` [α-D-glucose-1-phosphate], the “X-ray crystal structure, 2.7 Å” value on MsGGP [5] is on record as “the structure of MsGGP in complex with αGlc1-P was successfully determined”.
